Legend:
[1] = test system: subjects with MDD; test: SATE score, Example 1; format: in vivo, human; conditions: Treatment Week 6, 10 mg
Source text: SATE is a one to three questionnaire administered when the subject is unable to complete other evaluations, i.e., away from the clinical setting such as at home. SATE is useful to evaluate improvement or deterioration of depressive symptoms of the subjects over a short period of time. […] See, Table C.
iv. To investigate the effect of aticaprant on symptoms of depression using the Clinical Global Impression-Severity (CGI-S), the patient reported Symptoms of Major Depressive Disorder Scale (SMDDS) and the self-assessment of treatment experience (SATE).
(§1) • (i) Depression: Montgomery-Åsberg Depression Rating Scale (MADRS), Clinical Global Impression-Severity (CGI-S), Symptoms of Major Depressive Disorder Scale (SMDDS), and Self-assessment of treatment experience (SATE) • (ii) Anhedonia: Snaith-Hamilton Pleasure Scale (SHAPS) • (iii) Anxiety: Structured Interview Guide for the Hamilton Anxiety scale (SIGH-A) and HAM-A6 • (iv) Effects on Cognition: The Cognitive and Physical Functioning Questionnaire (CPFQ) • (v) Safety assessments

[2] = test system: subjects with MDD; test: SIGH-A score (anxiety), Example 1; format: in vivo, human; conditions: Treatment Week 6; 10 mg; 59 subjects analyzed
Source text: v. To investigate the effect of aticaprant on symptoms of anxiety using the HAM-A and on core symptoms of anxiety using the HAM-A6 subscale.
as §1

[3] = test system: subjects with MDD; test: MADRS total score, adjunctive aticaprant vs placebo (Example 1); conditions: for MADRS Total Score Change from Baseline LSMean (SE), MMRM / MADRS Total Score LSMean Difference (SE) Treatment - Placebo, MMRM / MADRS Total Score Effect Size vs placebo / MADRS Total Score Mean Change from Baseline (SD): 10 mg
[4] = test system: subjects with MDD; test: Treatment-emergent adverse events, full safety analysis set, Example 1
[5] = High anhedonia, Treatment Week 1, fITT
[6] = High anhedonia, Treatment Week 3, fITT
[7] = High anhedonia, Treatment Week 4, fITT
[8] = High anhedonia, Treatment Week 5, fITT
[9] = High anhedonia, Treatment Week 6, fITT
[10] = Low anhedonia, Treatment Week 1, fITT
[11] = Low anhedonia, Treatment Week 3, fITT
[12] = Low anhedonia, Treatment Week 4, fITT
[13] = Low anhedonia, Treatment Week 5, fITT
[14] = Low anhedonia, Treatment Week 6, fITT
[15] = Table 24, treatment period, Full Safety Analysis Set, 10 mg, N = 85
[16] = Table 25, treatment period, Full Safety Analysis Set, 10 mg, N = 85
[17] = Treatment period, Full Safety Analysis Set, 10 mg, N = 85

Cc1cc(C)cc(C2CCCN2Cc2ccc(Oc3ccc(C(N)=O)cc3F)cc2)c1 (stereo not shown) [aticaprant, 3-fluoro-4-4-2-(3,5-dimethylphenyl) pyrrolidin-1-yl-methylphenoxybenzamide]
Number of Subjects with SATE Score: Depression Worsened (Much worse) ([1]; n = 0): 0 subjects
Number of Subjects with SATE Score: Depression Worsened (Slightly worse) ([1]; n = 0): 0 subjects
Number of Subjects with SATE Score: Depression Worsened (Very much worse) ([1]; n = 0): 0 subjects
Number of Subjects with SATE Score: Depression Much improved ([1]; n = 21): 6 subjects
Number of Subjects with SATE Score: Depression Slightly improved ([1]; n = 21): 15 subjects
Number of Subjects with SATE Score: Depression Very Much Improved ([1]; n = 21): 0 subjects
Number of Subjects with SATE Score: Overall Depression (Got worse) ([1]; n = 30): 0 subjects
Number of Subjects with SATE Score: Overall Depression (Improved) ([1]; n = 30): 21 subjects
Number of Subjects with SATE Score: Overall Depression (Not changed) ([1]; n = 30): 9 subjects
Change from Treatment Baseline in Structured Interview Guide for the SIGH-A Score, Arithmetic Mean (SD) [2]: −5.85 ± 5.369 scores on a scale
MADRS Total Score: Mean Change from Baseline (SD) ([3]; High anhedonia (SHAPS >=38 at treatment baseline), Treatment Week 1, fITT): −4.4 (5.04)
MADRS Total Score: Effect size [3, 5]: −0.45
MADRS Total Score: Mean Change to Placebo (SD pooled) [3, 5]: −2.0 (4.38)
MADRS Total Score: Effect size [3, 6]: −0.54
MADRS Total Score: Mean Change from Baseline (SD) [3, 6]: −6.9 (6.66)
MADRS Total Score: Mean Change to Placebo (SD pooled) [3, 6]: −3.8 (6.94)
MADRS Total Score: Effect size [3, 7]: −0.50
MADRS Total Score: Mean Change from Baseline (SD) [3, 7]: −8.6 (7.32)
MADRS Total Score: Mean Change to Placebo (SD pooled) [3, 7]: −3.8 (7.56)
MADRS Total Score: Effect size [3, 8]: −0.51
MADRS Total Score: Mean Change from Baseline (SD) [3, 8]: −10.2 (8.04)
MADRS Total Score: Mean Change to Placebo (SD pooled) [3, 8]: −4.0 (7.87)
MADRS Total Score: Effect size [3, 9]: −0.51
MADRS Total Score: Mean Change from Baseline (SD) [3, 9]: −11.3 (8.69)
MADRS Total Score: Mean Change to Placebo (SD pooled) [3, 9]: −4.6 (9.03)
MADRS Total Score: Mean Change from Baseline (SD) ([3]; Low anhedonia (SHAPS >=20 and <38 at treatment baseline), Treatment Week 1, fITT): −2.4 (4.59)
MADRS Total Score: Effect size [3, 10]: −0.24
MADRS Total Score: Mean Change to Placebo (SD pooled) [3, 10]: −1.0 (4.39)
MADRS Total Score: Effect size [3, 11]: −0.08
MADRS Total Score: Mean Change from Baseline (SD) [3, 11]: −4.1 (6.67)
MADRS Total Score: Mean Change to Placebo (SD pooled) [3, 11]: −0.5 (6.37)
MADRS Total Score: Effect size [3, 12]: −0.23
MADRS Total Score: Mean Change from Baseline (SD) [3, 12]: −6.4 (6.77)
MADRS Total Score: Mean Change to Placebo (SD pooled) [3, 12]: −1.5 (6.65)
MADRS Total Score: Effect size [3, 13]: −0.10
MADRS Total Score: Mean Change from Baseline (SD) [3, 13]: −7.3 (6.90)
MADRS Total Score: Mean Change to Placebo (SD pooled) [3, 13]: −0.7 (6.86)
MADRS Total Score: Effect size [3, 14]: −0.29
MADRS Total Score: Mean Change from Baseline (SD) [3, 14]: −8.8 (7.48)
MADRS Total Score: Mean Change to Placebo (SD pooled) [3, 14]: −2.3 (7.80)
Change from Treatment Baseline in MADRS Total Score, Least Squares Mean Difference point estimate ([3]; Treatment Week 6, both responders and non-responders during placebo lead-in, 10 mg vs placebo): −3.1 score on a scale
MADRS LSMeans difference estimate, supplementary MMRM analysis (data prior to 15 Mar. 2020, COVID-19) ([3]; eITT): −3.0
MADRS Total Score Mean Change to Placebo ([3]; eITT, High anhedonia (baseline SHAPS >=38), Treatment Week 1): −1.8
MADRS Total Score Mean Change to Placebo ([3]; eITT, High anhedonia (baseline SHAPS >=38), Treatment Week 3): −3.0
MADRS Total Score Mean Change to Placebo ([3]; eITT, High anhedonia (baseline SHAPS >=38), Treatment Week 4): −2.2
MADRS Total Score Mean Change to Placebo ([3]; eITT, High anhedonia (baseline SHAPS >=38), Treatment Week 5): −2.6
MADRS Total Score Mean Change to Placebo ([3]; eITT, High anhedonia (baseline SHAPS >=38), Treatment Week 6): −3.4
MADRS Total Score Mean Change to Placebo ([3]; eITT, Low anhedonia (baseline SHAPS >=20 and <38), Treatment Week 1): −0.5
MADRS Total Score Mean Change to Placebo ([3]; eITT, Low anhedonia (baseline SHAPS >=20 and <38), Treatment Week 3): −0.1
MADRS Total Score Mean Change to Placebo ([3]; eITT, Low anhedonia (baseline SHAPS >=20 and <38), Treatment Week 4): 0.0
MADRS Total Score Mean Change to Placebo ([3]; eITT, Low anhedonia (baseline SHAPS >=20 and <38), Treatment Week 5): 0.3
MADRS Total Score Mean Change to Placebo ([3]; eITT, Low anhedonia (baseline SHAPS >=20 and <38), Treatment Week 6): −0.9
MADRS Total Score Change from Baseline LSMean (SE), MMRM ([3]; eITT, Treatment Week 1): 3.2
MADRS Total Score LSMean Difference (SE) Treatment - Placebo, MMRM ([3]; eITT, Treatment Week 1): −1.2
MADRS Total Score Effect Size vs placebo ([3]; eITT, Treatment Week 3): −0.22
MADRS Total Score LSMean Difference (SE) Treatment - Placebo, MMRM ([3]; eITT, Treatment Week 3): −1.5
MADRS Total Score Effect Size vs placebo ([3]; eITT, Treatment Week 4): −0.14
MADRS Total Score LSMean Difference (SE) Treatment - Placebo, MMRM ([3]; eITT, Treatment Week 4): −1.1
MADRS Total Score Effect Size vs placebo ([3]; eITT, Treatment Week 5): −0.14
MADRS Total Score LSMean Difference (SE) Treatment - Placebo, MMRM ([3]; eITT, Treatment Week 5): −1.5
percentage of subjects with MADRS remission (MADRS total score≤10) ([3]; eITT, Treatment Week 6): 16.9%
MADRS Total Score LSMean Difference (SE) Treatment - Placebo, MMRM ([3]; eITT, Treatment Week 6): −2.1
MADRS LSMeans difference estimate, supplementary MMRM analysis (data prior to 15 Mar. 2020, COVID-19) ([3]; fITT): −3.4
onset of significant treatment effect (MADRS LS mean change from baseline) ([3]; fITT, FIG. 7B): 3 week
MADRS Total Score LSMean Difference (SE) Treatment - Placebo, MMRM ([3]; fITT, Treatment Week 1): −1.6
MADRS Total Score Mean Change from Baseline (SD) ([3]; fITT, Treatment Week 1): −3.1
MADRS Total Score Change from Baseline LSMean (SE), MMRM ([3]; fITT, Treatment Week 3): −5.2
MADRS Total Score Effect Size vs placebo ([3]; fITT, Treatment Week 3): −0.26
MADRS Total Score LSMean Difference (SE) Treatment - Placebo, MMRM ([3]; fITT, Treatment Week 3): −1.9
MADRS Total Score Mean Change from Baseline (SD) ([3]; fITT, Treatment Week 3): −5.1
MADRS Total Score Effect Size vs placebo ([3]; fITT, Treatment Week 4): −0.32
MADRS Total Score LSMean Difference (SE) Treatment - Placebo, MMRM ([3]; fITT, Treatment Week 4): −2.5
MADRS Total Score Mean Change from Baseline (SD) ([3]; fITT, Treatment Week 4): −7.2
MADRS Total Score Effect Size vs placebo ([3]; fITT, Treatment Week 5): −0.26
MADRS Total Score LSMean Difference (SE) Treatment - Placebo, MMRM ([3]; fITT, Treatment Week 5): −2.4
MADRS Total Score Mean Change from Baseline (SD) ([3]; fITT, Treatment Week 5): −8.3
percentage of subjects with MADRS remission (MADRS total score≤10) ([3]; fITT, Treatment Week 6): 31.2%
MADRS Total Score Change from Baseline LSMean (SE), MMRM ([3]; fITT, Treatment Week 6): −9.6
MADRS Total Score LSMean Difference (SE) Treatment - Placebo, MMRM ([3]; fITT, Treatment Week 6): −3.1
MADRS total score difference between aticaprant and placebo ([3]; fITT, low anhedonia level (n=94), Treatment Week 6): −2.3
LSMD (MADRS) in high anhedonia group relative to low anhedonia group ([3]; week 6): more than double
TEAE in >=5% of subjects: Diarrhea [4, 15]: 7 (8) n (%)
TEAE in >=5% of subjects: Gastrointestinal Disorders [4, 15]: 12 (14) n (%)
TEAE in >=5% of subjects: Headache [4, 15]: 10 (12) n (%)
TEAE in >=5% of subjects: Infections And Infestations [4, 15]: 13 (15) n (%)
TEAE in >=5% of subjects: Nasopharyngitis [4, 15]: 5 (6) n (%)
TEAE in >=5% of subjects: Nervous System Disorders [4, 15]: 13 (15) n (%)
TEAE in >=5% of subjects: Pruritus [4, 15]: 5 (6) n (%)
TEAE in >=5% of subjects: Skin And Subcutaneous Tissue Disorders [4, 15]: 6 (7) n (%)
TEAE in >=5% of subjects: Total no. Subjects with Adverse Events [4, 15]: 40 (47) n (%)
TEAE of Special Interest: Abdominal Pain [4, 16]: 1 (1.2) n (%)
TEAE of Special Interest: Abdominal Pain Upper [4, 16]: 0 n (%)
TEAE of Special Interest: Diarrhea [4, 16]: 7 (8.2) n (%)
TEAE of Special Interest: Dyspepsia [4, 16]: 1 (1.2) n (%)
TEAE of Special Interest: Gastrointestinal Disorders [4, 16]: 9 (10.6) n (%)
TEAE of Special Interest: Pruritus [4, 16]: 5 (5.9) n (%)
TEAE of Special Interest: Skin And Subcutaneous Tissue Disorders [4, 16]: 5 (5.9) n (%)
TEAE of Special Interest: Total no. Subjects with Adverse Events of Special Interest [4, 16]: 13 (15.3) n (%)
Subjects with 1 or more TEAE [4, 17]: 40 (47.1) n (%)
Subjects with 1 or more serious TEAE [4, 17]: 0 n (%)
Subjects with TEAE leading to death [4, 17]: 0 n (%)
Subjects with TEAE leading to discontinuation of agent [4, 17]: 1 (1.2) n (%)
Total subjects affected by non-serious adverse events [4, 17]: 23 (27.1%) n (%)
Subjects with drug-related TEAE ([4]; Treatment period, Full Safety Analysis Set, 10 mg, N = 85, relationships possible, probable, very likely): 20 (23.5) n (%)
patients who experienced acute cholecystitis ([4]; treatment period): 0 patients
TEAE of special interest pruritus, subjects ([4]; treatment period, 5/85): 5.9%
TEAE diarrhea, subjects ([4]; treatment period, 7/85): 8.2%
TEAE headache, subjects ([4]; treatment period, 10/85): 11.8%
subjects who discontinued due to treatment-emergent adverse events ([4]; treatment period, due to diarrhea, nausea, vomiting and headache): 1 subject
